Holding throughout (assay type): functional
The species named for one assay is Homo sapiens. The assay can be described thus: Antagonism of LTB4 receptor induced CD11b/CD18 adhesion protein up-regulation in human neutrophil.
Assay [1] deals with Cavia porcellus. The assay is described as follows: Potency was evaluated in vivo in a guinea pig model of LTB4-induced airway obstruction upon intravenous administration.
In assay [2] the test system is Cavia porcellus. The assay can be described thus: Potency was evaluated in vivo in a guinea pig model of LTB4-induced airway obstruction upon oral administration.

One may read the IC50 as the midpoint of a concentration-inhibition curve. Turning to `CCCc1c(OCCCOc2cc(O)c(C(C)=O)cc2CC)cccc1OCC(=O)O`, the IC50 in the assay listed under Homo sapiens turned out to be 4390 nM. With `CCCc1c(OCCCOc2cc(O)c(C(C)=O)cc2CC)cccc1OC(C)C(=O)O` (stereo not drawn), the IC50 in the assay filed under Homo sapiens is 3270 nM.

Turning to `CCCc1c(OCCCOc2cc(O)c(C(C)=O)cc2CC)cccc1OC(CC)C(=O)O` (stereo not drawn), it took 1940 nM to reach half-maximal inhibition in the assay filed under Homo sapiens (IC50). One may read the ED50 as the midpoint of the dose-response relation. Lower therefore signals an effect at a small dose. `CCCc1c(OCCCOc2cc(O)c(C(C)=O)cc2CC)ccc2c1OC(C(=O)[O-])CC2.[Na+]` (stereo not drawn): the values for the ED50 with Cavia porcellus [1] and with Cavia porcellus [2] were 0.23 mg/kg and 0.5 mg/kg, respectively. The compound further gave an IC50 in the assay filed under Homo sapiens of 1600 nM. As for `CCc1cc(C(C)=O)c(O)cc1OCCCCCC(C)(C)c1nn[nH]n1` [LY-255283], the figures for the ED50 with Cavia porcellus [1] and with Cavia porcellus [2] were 2.8 mg/kg and 11 mg/kg, respectively.

Values taken from ChEMBL document CHEMBL1126963, “Acid unit modifications of 1,2,4,5-substituted hydroxyacetophenones and the effect on in vitro and in vivo LTB4 receptor antagonism” (Bioorg Med Chem Lett, 1993).
